Results on two compounds are retold here after US20090291919A1, “Compositions and Methods for Treating or Preventing Ophthalmic Light Toxicity” (University of Florida Research Foundation, Inc., priority 2006, published 2009).

A short description of data set [1]: Absorption of the compound by itself in the visible spectrum.
Experimental: (§1) To test whether this compound associates with wild-type (WT) opsin to form pigment, it was added to opsin solution in vitro.
In data set [2] the test system is purified wt (wild-type) opsin. The data set is described as follows: Pigment formation of compound alone with opsin (500 nm absorbing pigment). The conditions noted are these: compound added to opsin without 11-cis-retinal.
Experimental: as §1
In data set [3] the test system is purified WT opsin. The experiment in a line: Opsin regeneration: pigment (rhodopsin) formation with 11-cis-retinal in presence of compound. The conditions noted are these: for inhibition of pigment formation of opsin with 11-cis-retinal / of binding of 11-cis-retinal to opsin: in vitro, result in words.
Experimental: In a typical competition assay of the invention, a compound is sought that will tie up the retinal binding pocket of the opsin protein. Thus, the assay seeks to identify a non-retinoid compound (one that will not be tightly regulated by the retina as to amount entering rod cells) that competes with 11-cis-retinal. Over time this will slow the rate of formation of rhodopsin relative to the rate when 11-cis-retinal alone is present. In one embodiment, the assay is conducted in the presence of 11-cis-retinal, and the rate of formation of rhodopsin is measured as a way of determining competition for the retinal binding pocket, for example, by determining the rate of increase in the 500 nm peak characteristic for rhodopsin. No antibodies for rhodopsin are required for this assay.

Entries after “also recorded” stand apart in the source; their conditions may differ.

Take `CC(=O)c1c(C)n[nH]c1C` [SN10011, 1-(3,5-dimethyl-1H-pyrazol-4-yl)ethanone]: the “absorption in the visible spectrum” value in data set [1] was “did not show any absorption in the visible spectrum; also recorded: does not absorb in the visible spectrum”. Besides, the “formation of a 500 nm absorbing pigment with opsin” value in data set [2] is recorded as “No pigment was formed; also recorded: no 500 nm absorbing pigment was generated”. In data set [3] (SN10011 2 and 5 mM vs β-ionone), the “extent of inhibition of regeneration compared with β-ionone” value is “much lower”. In addition, the “inhibition of pigment formation of opsin with 11-cis-retinal / of binding of 11-cis-retinal to opsin” value in data set [3] is “reversibly inhibits binding of 11-cis-retinal; also recorded: significant effect on inhibition of pigment formation; also recorded: inhibited”; in data set [3] (listed as SN 10011), “inhibits the binding of 11-cis-retinal to opsin in vitro”.

On to `CC(=O)/C=C/C1=C(C)CCCC1(C)C` [β-ionone, reference compound], for which the “formation of a 500 nm absorbing pigment with opsin” value in data set [2] was “does not form a light absorbing pigment; also recorded: does not itself form a 500 nm absorbing pigment; also recorded: no 500 nm absorbing pigment was formed”. Also, in data set [3], the “inhibition of pigment formation of opsin with 11-cis-retinal / of binding of 11-cis-retinal to opsin” value is “inhibit binding of retinal to the site; also recorded: inhibited opsin regeneration in a dose dependent manner”.
